# Patent publication US20200077655A1, “Use of an Acyclic Picolinamide Compound as a Fungicide for Control of Phytopathogenic Fungi in Orchard, Vineyard and Plantation Crops” (Dow AgroSciences LLC, priority 2017, published 2020)
# Legend:
# Format in all cases: in vivo
# [1] = tested on: Monilinia laxa (MONILA); assay: Field assessment on brown rot of flowers in stone fruits (apricots); conditions: 5% EC + Trycol, field grown apricots, protectant
# Source text: A fungicidal treatment containing Compound I, applied in a 5% EC formulation and tank mixed with an adjuvant (Trycol, 50% w/w at 0.2% v/v), was sprayed twice during the flowering period on the plant canopy of apricots (PRNAR, Protici variety) at rates of 50, 100, and 150 grams of active ingredient per hectare (g ai/ha). The applications were done at 7 day intervals with disease inoculation at the last application (protectant). The treatment was part of an experimental trial designed as a randomized complete block with four replications and a plot of approximately 4.7×3.1 m, with compound I being applied using a MISTBLOW, Solo backpack applicator at a water volume of 500 L/ha. MONILA disease was evaluated on flowers on a sample of 10 pre-marked branches per tree. The number of infected flowers was counted and consequently the percent incidence was calculated. Visual infection was assessed three times during the trial at 10, 14 and 20 days after the second application. Area under the disease progress curve (AUDPC) was calculated for each plot using the sets of recorded severity data. Relative AUDPC (% control based on AUDPC) was calculated as percent of the nontreated control.
# [2] = tested on: Botrytis cinerea (BOTRCI); assay: Field assessment of gray mold on grapevine
# Source text: On grapevine: A fungicidal treatment containing Compound I, applied in a 5% EC formulation and tank mixed with an adjuvant (Trycol, 50% w/w at 0.2% v/v), was sprayed only on the bunch portion of grape plants (VITVI, Pinot grey variety) at rates of 50, 150 and 200 grams of active ingredient per hectare (g ai/ha). The trial was based on two applications 28 days apart in open field conditions with disease inoculation 3 days after the last application (plant growth stage B83). The treatment was part of an experimental trial designed as a randomized complete block with four replications and a plot of approximately 2.5×7.0 m. Formulations of compound I were applied at water volume of 500 L/ha (bunches only), using a backpack plot sprayer ([…], Solo 433; Airatom nozzle). Disease severity was recorded as a percentage of incidence and infection of damaged bunches on a random sample of 100 bunches per plot. Gray mold infection was assessed three times, the first at 22 days after the last application (22DAAB), the second and third at 28DAAB and 36DAAB. Area under the disease progress curve (AUDPC) was calculated for each plot using the sets of recorded severity data. Relative AUDPC (% control based on AUDPC) was calculated as percent of the nontreated control.
# [3] = tested on: Cladosporium caryigenum (CLADCA); assay: Field assessment of two trials for pecan nut scab
# Source text: A fungicidal treatment containing Compound I, applied in an SC formulation (MSO built-in) and tank mixed with an adjuvant (Agnique BP-420, 50% w/w at 0.2% v/v or Adsee C80W 80%), was sprayed on pecan trees (CYAIL, Desirable variety) from pre-flowering up to nut hardening at rates of 60, 120, 150, and 180 g ai/ha. The experimental plots were run with natural infestation. The treatment was part of an experimental trial designed as a randomized complete block (RCB) with four replications and a plot of approximately 40×40 ft, respectively. In one test, compound I was applied in 9 applications at water volume of 94-115 gallons per acre (gal/acre), using an Airblast sprayer (Hollowcone solid disc D10/45 nozzles) and pressurized at 46-54 psi. In the second test, compound I was applied in 8 applications at water volume of […] sprayer (solid stream nozzle) and pressurized at 300 psi. Both trials targeted 14 day intervals for applications.
# Disease evaluations were made as % incidence and % severity nuts in one test, 3 evaluations each, 9 applications, and as % incidence nuts and % severity leaves in the second test, 2 and 3 evaluations, respectively, 8 applications. Area under the disease progress curve (AUDPC) was calculated for each plot using the sets of recorded severity and incidence data. Relative AUDPC (% control based on AUDPC) was calculated as percent of the untreated control.
# [4] = tested on: Cladosporium carpopilum (CLADSP); assay: Field assessment of almond scab; conditions: almond nut incidence, 121 DAAA
# Source text: A fungicidal treatment containing Compound I, applied in an SC formulation (MSO built-in) and tank mixed with an adjuvant (Agnique BP-420, 50% w/w at 0.2% v/v or Adsee C80W 80%), was sprayed as a single application on almond trees (PRNDU, Winter variety) at rates of 60, 120, 150, and 180 g ai/ha. The experimental plots were run with natural infestation. The treatment was part of an experimental trial designed as a randomized complete block (RCB) with three replications and a plot of approximately 16×22 ft. Compound I was applied at water volume of 100 gal/acre, using a Mistblower sprayer (Orifice nozzle 2.3 setting).
# Nut incidence (number of visual diseased nuts per 10 nuts per tree on whole plot) was assessed 121 days after application A (121 DAAA). Using Abbotts, % nut incidence of the treatments was used vs the nontreated to calculate % control.
# [5] = 60 g ai/ha, Agnique BP420, 240 mL/ha
# [6] = 120 g ai/ha, Agnique BP420, 480 mL/ha
# [7] = 150 g ai/ha, Agnique BP420, 600 mL/ha
# [8] = 180 g ai/ha, Agnique BP420, 720 mL/ha
smiles,measurement,setting,value
"COc1ccnc(C(=O)N[C@@H](C)C(=O)O[C@@H](C)C(c2ccc(F)cc2)c2ccc(F)cc2)c1OC(C)=O [Compound I, (S)-1,1-bis(4-fluorophenyl)propan-2-yl (3-acetoxy-4-methoxypicolinoyl)-L-alaninate]",% Control (AUDPC) from flower incidence assessments,[1]; 50 g ai/ha,B (51-75)
same,% Control (AUDPC) from flower incidence assessments,[1]; 100 g ai/ha,A (76-100)
same,% Control (AUDPC) from flower incidence assessments,[1]; 150 g ai/ha,A (76-100)
same,Percent control (AUDPC) from fruit infection assessments,[2]; 50 g ai/ha,B (51-75)
same,Percent control (AUDPC) from fruit infection assessments,[2]; 150 g ai/ha,A (76-100)
same,Percent control (AUDPC) from fruit infection assessments,[2]; 200 g ai/ha,A (76-100)
same,Calc Percent Control of CLADCA (AUDPC),[3]; [5],25.1%
same,Calc Percent Control of CLADCA (AUDPC),"[3]; 60 g ai/ha, MSO, 120 g ai/ha",29.8%
same,Calc Percent Control of CLADCA (AUDPC),"[3]; 120 g ai/ha, Adsee C80W 80%, 300 g ai/ha",21.9%
same,Calc Percent Control of CLADCA (AUDPC),[3]; [6],28.8%
same,Calc Percent Control of CLADCA (AUDPC),"[3]; 120 g ai/ha, MSO, 240 g ai/ha",30.1%
same,Calc Percent Control of CLADCA (AUDPC),[3]; [7],35.0%
same,Calc Percent Control of CLADCA (AUDPC),"[3]; 150 g ai/ha, MSO, 300 g ai/ha",29.8%
same,Calc Percent Control of CLADCA (AUDPC),[3]; [8],32.5%
same,Calc Percent Control of CLADCA (AUDPC),"[3]; 180 g ai/ha, MSO, 360 g ai/ha",53.0%
same,Calc Percent Control of CLADSP,[4]; [5],47.3%
same,Calc Percent Control of CLADSP,"[4]; 60 g ai/ha, MSO, 120 g ai/ha",61.8%
same,Calc Percent Control of CLADSP,[4]; [6],68.2%
same,Calc Percent Control of CLADSP,"[4]; 120 g ai/ha, MSO, 240 g ai/ha",97.0%
same,Calc Percent Control of CLADSP,[4]; [7],69.7%
same,Calc Percent Control of CLADSP,"[4]; 150 g ai/ha, MSO, 300 g ai/ha",55.1%
same,Calc Percent Control of CLADSP,[4]; [8],90.9%
same,Calc Percent Control of CLADSP,"[4]; 180 g ai/ha, MSO, 360 g ai/ha",39.5%
